Test system: MRSA clinical isolates
Experiment: Antibiotic susceptibility profile of MRSA clinical isolates (EUCAST breakpoints)
Assay type: cell-based, Staphylococcus aureus
Text: Clinical MRSA isolates with multidrug resistance were obtained from the collection of the Research Institute of Antimicrobial Chemotherapy, Smolensk State Medical Academy.

## C/C(=C\C(=O)OCCCCCCCCC(=O)O)C[C@@H]1OC[C@H](C[C@@H]2O[C@H]2[C@@H](C)[C@H](C)O)[C@@H](O)[C@H]1O [Mupirocin]
MRSA strain 1
  Drug sensibility profile: S
MRSA strain 2
  Drug sensibility profile: S
MRSA strain 3
  Drug sensibility profile: S
MRSA strain 4
  Drug sensibility profile: S
MRSA strain 5
  Drug sensibility profile: S
MRSA strain 6
  Drug sensibility profile: S
MRSA strain 7
  Drug sensibility profile: S
MRSA strain 8
  Drug sensibility profile: S
MRSA strain 9
  Drug sensibility profile: S
MRSA strain 10
  Drug sensibility profile: S
MRSA strain 12
  Drug sensibility profile: S
MRSA strain 13
  Drug sensibility profile: S
MRSA strain 14
  Drug sensibility profile: S
MRSA strain 15
  Drug sensibility profile: S
MRSA strain 16
  Drug sensibility profile: S
MRSA strain 17
  Drug sensibility profile: S
MRSA strain 18
  Drug sensibility profile: S
MRSA strain 21
  Drug sensibility profile: S
MRSA strain 23
  Drug sensibility profile: S
MRSA strain 24
  Drug sensibility profile: S
MRSA strain 25
  Drug sensibility profile: S
MRSA strain 26
  Drug sensibility profile: S
MRSA strain 27
  Drug sensibility profile: S
MRSA strain 28
  Drug sensibility profile: S
MRSA strain 29
  Drug sensibility profile: S
MRSA strain 30
  Drug sensibility profile: S
MRSA strain 31
  Drug sensibility profile: S
MRSA strain 34
  Drug sensibility profile: S
MRSA strain 35
  Drug sensibility profile: S
MRSA strain 36
  Drug sensibility profile: S
MRSA strain 40
  Drug sensibility profile: S
MRSA strain 41
  Drug sensibility profile: S
MRSA strain 42
  Drug sensibility profile: S
MRSA strain 43
  Drug sensibility profile: S
MRSA strain 44
  Drug sensibility profile: S
MRSA strain 45
  Drug sensibility profile: S
MRSA strain 46
  Drug sensibility profile: S
MRSA strain 48
  Drug sensibility profile: S
MRSA strain 49
  Drug sensibility profile: S
MRSA strain 50
  Drug sensibility profile: I
MRSA strain 51
  Drug sensibility profile: S

## Cc1cc(NS(=O)(=O)c2ccc(N)cc2)no1 [SUL, sulfamethoxazole]
MRSA strain 1
  Drug sensibility profile: R
MRSA strain 2
  Drug sensibility profile: S
MRSA strain 3
  Drug sensibility profile: S
MRSA strain 4
  Drug sensibility profile: S
MRSA strain 5
  Drug sensibility profile: S
MRSA strain 6
  Drug sensibility profile: S
MRSA strain 7
  Drug sensibility profile: S
MRSA strain 8
  Drug sensibility profile: S
MRSA strain 9
  Drug sensibility profile: S
MRSA strain 10
  Drug sensibility profile: S
MRSA strain 12
  Drug sensibility profile: S
MRSA strain 13
  Drug sensibility profile: S
MRSA strain 14
  Drug sensibility profile: S
MRSA strain 15
  Drug sensibility profile: S
MRSA strain 16
  Drug sensibility profile: S
MRSA strain 17
  Drug sensibility profile: I
MRSA strain 18
  Drug sensibility profile: S
MRSA strain 21
  Drug sensibility profile: S
MRSA strain 23
  Drug sensibility profile: S
MRSA strain 24
  Drug sensibility profile: S
MRSA strain 25
  Drug sensibility profile: S
MRSA strain 26
  Drug sensibility profile: S S S S S S S
MRSA strain 27
  Drug sensibility profile: S
MRSA strain 28
  Drug sensibility profile: S
MRSA strain 29
  Drug sensibility profile: S
MRSA strain 30
  Drug sensibility profile: S
MRSA strain 31
  Drug sensibility profile: S
MRSA strain 34
  Drug sensibility profile: S
MRSA strain 35
  Drug sensibility profile: S
MRSA strain 36
  Drug sensibility profile: S S S S S S S
MRSA strain 40
  Drug sensibility profile: S
MRSA strain 41
  Drug sensibility profile: S
MRSA strain 42
  Drug sensibility profile: S
MRSA strain 43
  Drug sensibility profile: S
MRSA strain 44
  Drug sensibility profile: S
MRSA strain 45
  Drug sensibility profile: S
MRSA strain 46
  Drug sensibility profile: S
MRSA strain 48
  Drug sensibility profile: S
MRSA strain 49
  Drug sensibility profile: S
MRSA strain 50
  Drug sensibility profile: S
MRSA strain 51
  Drug sensibility profile: S

## CN(C)[C@@H]1C(O)=C(C(N)=O)C(=O)[C@@]2(O)C(O)=C3C(=O)c4c(O)cccc4[C@@](C)(O)[C@H]3C[C@@H]12 [TET, tetracycline]
MRSA strain 1
  Drug sensibility profile: R
MRSA strain 2
  Drug sensibility profile: R
MRSA strain 3
  Drug sensibility profile: S
MRSA strain 4
  Drug sensibility profile: S
MRSA strain 5
  Drug sensibility profile: S
MRSA strain 6
  Drug sensibility profile: S
MRSA strain 7
  Drug sensibility profile: R
MRSA strain 8
  Drug sensibility profile: R
MRSA strain 9
  Drug sensibility profile: R
MRSA strain 10
  Drug sensibility profile: S
MRSA strain 12
  Drug sensibility profile: R
MRSA strain 13
  Drug sensibility profile: R
MRSA strain 14
  Drug sensibility profile: S
MRSA strain 15
  Drug sensibility profile: R
MRSA strain 16
  Drug sensibility profile: S
MRSA strain 17
  Drug sensibility profile: S
MRSA strain 18
  Drug sensibility profile: S
MRSA strain 21
  Drug sensibility profile: R
MRSA strain 23
  Drug sensibility profile: S
MRSA strain 24
  Drug sensibility profile: S
MRSA strain 25
  Drug sensibility profile: S
MRSA strain 26
  Drug sensibility profile: S S S S S S S
MRSA strain 27
  Drug sensibility profile: R
MRSA strain 28
  Drug sensibility profile: R
MRSA strain 29
  Drug sensibility profile: S
MRSA strain 30
  Drug sensibility profile: S
MRSA strain 31
  Drug sensibility profile: S
MRSA strain 34
  Drug sensibility profile: S
MRSA strain 35
  Drug sensibility profile: S
MRSA strain 36
  Drug sensibility profile: S S S S S S S
MRSA strain 40
  Drug sensibility profile: R
MRSA strain 41
  Drug sensibility profile: R
MRSA strain 42
  Drug sensibility profile: S
MRSA strain 43
  Drug sensibility profile: S
MRSA strain 44
  Drug sensibility profile: S
MRSA strain 45
  Drug sensibility profile: I
MRSA strain 46
  Drug sensibility profile: S
MRSA strain 48
  Drug sensibility profile: R
MRSA strain 49
  Drug sensibility profile: R
MRSA strain 50
  Drug sensibility profile: R
MRSA strain 51
  Drug sensibility profile: S

## Cn1nnc(-c2ccc(-c3ccc(N4C[C@H](CO)OC4=O)cc3F)cn2)n1 [Tedizolid]
MRSA strain 6
  Drug sensibility profile: S
MRSA strain 7
  Drug sensibility profile: S
MRSA strain 8
  Drug sensibility profile: S
MRSA strain 9
  Drug sensibility profile: S
MRSA strain 10
  Drug sensibility profile: S
MRSA strain 12
  Drug sensibility profile: S
MRSA strain 13
  Drug sensibility profile: S
MRSA strain 14
  Drug sensibility profile: S
MRSA strain 15
  Drug sensibility profile: S
MRSA strain 16
  Drug sensibility profile: S
MRSA strain 17
  Drug sensibility profile: S
MRSA strain 18
  Drug sensibility profile: S
MRSA strain 21
  Drug sensibility profile: S
MRSA strain 23
  Drug sensibility profile: S
MRSA strain 24
  Drug sensibility profile: S
MRSA strain 25
  Drug sensibility profile: S
MRSA strain 26
  Drug sensibility profile: S
MRSA strain 27
  Drug sensibility profile: S
MRSA strain 28
  Drug sensibility profile: S
MRSA strain 29
  Drug sensibility profile: S
MRSA strain 36
  Drug sensibility profile: S
MRSA strain 41
  Drug sensibility profile: S
MRSA strain 42
  Drug sensibility profile: S
MRSA strain 44
  Drug sensibility profile: S
MRSA strain 45
  Drug sensibility profile: S
MRSA strain 51
  Drug sensibility profile: S

## CCCCCCCCCCNCCN[C@@]1(C)C[C@H](O[C@H]2[C@H](Oc3c4cc5cc3Oc3ccc(cc3Cl)[C@@H](O)[C@@H](NC(=O)[C@@H](CC(C)C)NC)C(=O)N[C@@H](CC(N)=O)C(=O)N[C@H]5C(=O)N[C@H]3C(=O)N[C@H](C(=O)N[C@H](C(=O)O)c5cc(O)c(CNCP(=O)(O)O)c(O)c5-c5cc3ccc5O)[C@H](O)c3ccc(c(Cl)c3)O4)O[C@H](CO)[C@@H](O)[C@@H]2O)O[C@@H](C)[C@H]1O [Telavancin]
MRSA strain 25
  Drug sensibility profile: S
MRSA strain 26
  Drug sensibility profile: S
MRSA strain 27
  Drug sensibility profile: S
MRSA strain 28
  Drug sensibility profile: S
MRSA strain 29
  Drug sensibility profile: S
MRSA strain 36
  Drug sensibility profile: S
MRSA strain 41
  Drug sensibility profile: S
MRSA strain 42
  Drug sensibility profile: S
MRSA strain 44
  Drug sensibility profile: S
MRSA strain 45
  Drug sensibility profile: S
MRSA strain 51
  Drug sensibility profile: S

Reference: publication PMC11899342, “Novel Triazeneindole Antibiotics: Synthesis and Hit-to-Lead Optimization” (International Journal of Molecular Sciences, 2025)
